From US8609666B2, “2-morpholino-pyrido[3,2-D]pyrimidines” (Merck Serono SA, priority 2009, dated 2013) come the findings set out here.

This assay relates to Human recombinant GST-PI3K. As to the kind of experiment: PI3K induced-lipid phosphorylation scintillation proximity assay (neomycin-coated SPA beads). It counts as biochemical. Conditions: amount necessary to achieve 50% inhibition of PI3K; 120 min at room temperature. An excerpt:
The efficacy of compounds of the invention in inhibiting the PI3K induced-lipid phosphorylation may be tested in the following binding assay. The assay combines the scintillation proximity assay technology (SPA, Amersham) with the capacity of neomycin (a polycationic antibiotic) to bind phospholipids with high affinity and specificity. The Scintillation Proximity Assay is based on the properties of weakly emitting isotopes (such as ^3H, ^125I, ^33P). Coating SPA beads with neomycin allows the detection of phosphorylated lipid substrates after incubation with recombinant PI3K and radioactive ATP in the same well, by capturing the radioactive phospholipids to the SPA beads through their specific binding to neomycin. To a 96 wells MTP containing 10 μl of the test compound of Formula (I) (solubilized in 10% DMSO; to yield a concentration of 100, 25, 5.0, 1.25, 0.312, 0.078, 0.0195, 0.00488, 0.00122 and 0.0003 μM of the test compound), the following assay components are added: 1) 10 μL of lipid micelles 2) […] of Kinase buffer ([^33P]γATP162 μM/300 nCi, MgCl2 2.5 mM, DTT 2.5 mM, Na3VO4 25 μM in Hepes 40 mM, pH 7.4) and 3) 10 μL (100 ng) of Human recombinant GST-PI3K (in Hepes 40 mM, pH 7.4, ethylenglycol 4%). After incubation at room temperature for 120 minutes, with gentle agitation, the reaction is stopped by addition of 200 μL of a solution containing 250 μg of neomycin-coated PVT SPA beads, ATP 60 mM and EDTA 6.2 mM in PBS. The assay is further incubated at room temperature for 60 minutes with gentle agitation to allow binding of phospholipids to neomycin-SPA beads. After precipitation of the neomycin-coated PVT SPA beads for 5 minutes at 1500×g, radioactive PtdIns(3)P is quantified by scintillation counting in a Wallac MicroBeta™ plate counter. The values indicated in Table I below refer to the IC50 (μM) with respect to PI3K, i.e. the amount necessary to achieve 50% inhibition of said target. Said values show a considerable inhibitory potency of pyridopyrimidine compounds with regard to PI3K.

For the compound `CS(=O)(=O)N1CCN(c2cc(C(=O)O)nc3c(-c4cccc(O)c4)nc(N4CCOCC4)nc23)CC1` [Example 61, 4-(3-Hydroxyphenyl)-8-[4-(methylsulfonyl)piperazin-1-yl]-2-morpholin-4-ylpyrido[3,2-d]pyrimidine-6-carboxylic acid], the IC50 amounted to 15 nM.
As for `CN(CCO)c1cc(C(=O)O)nc2c(-c3ccc(F)cc3O)nc(N3CCOCC3)nc12` [Example 59, 4-(4-Fluoro-2-hydroxyphenyl)-8-[(2-hydroxyethyl)(methyl)amino]-2-morpholin-4-ylpyrido[3,2-d]pyrimidine-6-carboxylic acid], the IC50 came out at 220 nM.
As for `CNc1cc(C(=O)O)nc2c(-c3cccc(O)c3)nc(N3CCOCC3)nc12` [Example 40, 4-(3-Hydroxyphenyl)-8-(methylamino)-2-morpholin-4-ylpyrido[3,2-d]pyrimidine-6-carboxylic acid], the IC50 was found to be 144 nM.
The result for `O=C(O)c1cc(Cl)c2nc(N3CCOCC3)nc(-c3cccc(O)c3)c2n1` [Example 9, 8-Chloro-4-(3-hydroxyphenyl)-2-morpholin-4-ylpyrido[3,2-d]pyrimidine-6-carboxylic acid] reads 108 nM.
Next, `COCCN(C)c1cc(C(=O)O)nc2c(-c3ccc4[nH]ccc4c3)nc(N3CCOCC3)nc12` [Example 21, 4-(1H-Indol-5-yl)-8-[(2-methoxy-ethyl)-methyl-amino]-2-morpholin-4-yl-pyrido[3,2-d]pyrimidine-6-carboxylic acid]: 169 nM; `Cc1cc(C(=O)O)nc2c(-c3cccc(O)c3)nc(N3CCOCC3)nc12` [Example 62, 4-(3-Hydroxyphenyl)-8-methyl-2-morpholin-4-ylpyrido[3,2-d]pyrimidine-6-carboxylic acid]: 225 nM.
Next, `COCCNc1cc(C(=O)O)nc2c(-c3ccc(O)cc3)nc(N3CCOCC3)nc12` [Example 5, 4-(4-Hydroxy-phenyl)-8-(2-methoxy-ethylamino)-2-morpholin-4-yl-pyrido[3,2-d]pyrimidine-6-carboxylic acid]: 504 nM; `O=C(O)c1ccc2nc(N3CCOCC3)nc(-c3ccc(O)cc3)c2n1` [Example 8, 4-(4-Hydroxy-phenyl)-2-morpholin-4-yl-pyrido[3,2-d]pyrimidine-6-carboxylic acid]: 855 nM; `CS(=O)(=O)c1cc(C(=O)O)nc2c(-c3ccc(O)c(F)c3)nc(N3CCOCC3)nc12` [Example 45, 4-(3-Fluoro-4-hydroxyphenyl)-8-(methylsulfonyl)-2-morpholin-4-ylpyrido[3,2-d]pyrimidine-6-carboxylic acid]: 335 nM.
On to `COCCN(C)c1cc(C(=O)O)nc2c(-c3ccc(F)cc3O)nc(N3CCOCC3)nc12` [Example 51, 4-(4-Fluoro-2-hydroxyphenyl)-8-[(2-methoxyethyl)(methyl)amino]-2-morpholin-4-ylpyrido[3,2-d]pyrimidine-6-carboxylic acid], for which the IC50 was found to be 62 nM.
For `COc1cccc(-c2nc(N3CCOCC3)nc3c(Cl)cc(C(=O)O)nc23)c1` [Example 1, 8-Chloro-4-(3-methoxyphenyl)-2-morpholin-4-ylpyrido[3,2-d]pyrimidine-6-carboxylic acid], the IC50 came out at 1080 nM.
The result for `COCCN(C)c1cc(C(=O)O)nc2c(-c3cc(F)cc(F)c3)nc(N3CCOCC3)nc12` [Example 65, 4-(3,5-Difluorophenyl)-8-[(2-methoxyethyl)(methyl)amino]-2-morpholin-4-ylpyrido[3,2-d]pyrimidine-6-carboxylic acid] reads 1290 nM; that for `CN(C)c1cc(C(=O)O)nc2c(-c3cccc(C#N)c3)nc(N3CCOCC3)nc12` [Example 66, 4-(3-Cyanophenyl)-8-(dimethylamino)-2-morpholin-4-ylpyrido[3,2-d]pyrimidine-6-carboxylic acid], 1100 nM; that for `CS(=O)(=O)N1CCN(c2cc(C(=O)O)nc3c(-c4ccccc4)nc(N4CCOCC4)nc23)CC1` [Example 67, 8-[4-(Methylsulfonyl)piperazin-1-yl]-2-morpholin-4-yl-4-phenylpyrido[3,2-d]pyrimidine-6-carboxylic acid], 30 nM.
